For data set [1], the system named is MDA-MB-468. The experiment in a line: Antiproliferative activity against human MDA-MB-468 cells assessed as cell growth inhibition at 10 uM measured after 48 hrs by SRB assay relative to control. It counts as functional.
The subject of data set [2] is DU-145. The experiment in a line: Antiproliferative activity against human DU-145 cells assessed as cell growth inhibition measured after 48 hrs by SRB assay. It counts as functional, cell-based. The settings on record: DU-145, 48 h. On the technique in general: The SRB assay estimates cell density from bound dye.
The test system of data set [3] is OVCAR-4. The data set can be described thus: Antiproliferative activity against human OVCAR-4 cells assessed as cell growth inhibition measured after 48 hrs by SRB assay. It counts as functional, cell-based. The settings on record: OVCAR-4, 48 h.
For data set [4], the target named is Fibroblast growth factor receptor 1 (Homo sapiens) (UniProt P11362). The experiment in a line: Inhibition of FGFR1 (unknown origin) at 10 uM incubated for 40 mins in presence of Mg/ATP mix by [gamma p33]-ATP based scintillation counting method relative to control.
The subject of data set [5] is UO-31. The data set can be described thus: Antiproliferative activity against human UO-31 cells assessed as cell growth inhibition measured after 48 hrs by SRB assay. It counts as functional, cell-based. As to conditions: UO-31, 48 h.
Data set [6] concerns the target Receptor tyrosine-protein kinase erbB-2 (Homo sapiens) (UniProt P04626). The experiment in a line: Inhibition of ErbB2 (unknown origin) at 10 uM incubated for 40 mins in presence of Mg/ATP mix by [gamma p33]-ATP based scintillation counting method relative to control.
The subject of data set [7] is OVCAR-4. The data set can be described thus: Antiproliferative activity against human OVCAR-4 cells assessed as cell growth inhibition at 10 uM measured after 48 hrs by SRB assay relative to control. It counts as functional.
The test system of data set [8] is HL-60(TB). The data set can be described thus: Antiproliferative activity against human HL-60(TB) cells assessed as cell growth inhibition at 10 uM measured after 48 hrs by SRB assay relative to control. It counts as functional.
Data set [9] addresses Proto-oncogene tyrosine-protein kinase Src (Homo sapiens) (UniProt P12931). The experiment in a line: Inhibition of C-SRC (unknown origin) at 10 uM incubated for 40 mins in presence of Mg/ATP mix by [gamma p33]-ATP based scintillation counting method relative to control.
Data set [10] has as its system DU-145. The experiment in a line: Antiproliferative activity against human DU-145 cells assessed as cell growth inhibition at 10 uM measured after 48 hrs by SRB assay relative to control. It counts as functional.
The test system of data set [11] is WI-38. The experiment in a line: Cytotoxicity against human WI-38 cells assessed as cell growth inhibition measured after 48 hrs by SRB assay. It counts as cell-based. The settings on record: WI-38, 48 h.
Data set [12] relates to MDA-MB-468. The data set can be described thus: Antiproliferative activity against human MDA-MB-468 cells assessed as cell growth inhibition measured after 48 hrs by SRB assay. It counts as functional, cell-based. As to conditions: MDA-MB-468, 48 h.
For data set [13], the target named is T1, Receptor tyrosine-protein kinase erbB-4 (Homo sapiens, UniProt Q15303). The data set can be described thus: Inhibition of ErbB4 (unknown origin) at 10 uM incubated for 40 mins in presence of Mg/ATP mix by [gamma p33]-ATP based scintillation counting method relative to control.
T1 sequence (Q15303 whole entry): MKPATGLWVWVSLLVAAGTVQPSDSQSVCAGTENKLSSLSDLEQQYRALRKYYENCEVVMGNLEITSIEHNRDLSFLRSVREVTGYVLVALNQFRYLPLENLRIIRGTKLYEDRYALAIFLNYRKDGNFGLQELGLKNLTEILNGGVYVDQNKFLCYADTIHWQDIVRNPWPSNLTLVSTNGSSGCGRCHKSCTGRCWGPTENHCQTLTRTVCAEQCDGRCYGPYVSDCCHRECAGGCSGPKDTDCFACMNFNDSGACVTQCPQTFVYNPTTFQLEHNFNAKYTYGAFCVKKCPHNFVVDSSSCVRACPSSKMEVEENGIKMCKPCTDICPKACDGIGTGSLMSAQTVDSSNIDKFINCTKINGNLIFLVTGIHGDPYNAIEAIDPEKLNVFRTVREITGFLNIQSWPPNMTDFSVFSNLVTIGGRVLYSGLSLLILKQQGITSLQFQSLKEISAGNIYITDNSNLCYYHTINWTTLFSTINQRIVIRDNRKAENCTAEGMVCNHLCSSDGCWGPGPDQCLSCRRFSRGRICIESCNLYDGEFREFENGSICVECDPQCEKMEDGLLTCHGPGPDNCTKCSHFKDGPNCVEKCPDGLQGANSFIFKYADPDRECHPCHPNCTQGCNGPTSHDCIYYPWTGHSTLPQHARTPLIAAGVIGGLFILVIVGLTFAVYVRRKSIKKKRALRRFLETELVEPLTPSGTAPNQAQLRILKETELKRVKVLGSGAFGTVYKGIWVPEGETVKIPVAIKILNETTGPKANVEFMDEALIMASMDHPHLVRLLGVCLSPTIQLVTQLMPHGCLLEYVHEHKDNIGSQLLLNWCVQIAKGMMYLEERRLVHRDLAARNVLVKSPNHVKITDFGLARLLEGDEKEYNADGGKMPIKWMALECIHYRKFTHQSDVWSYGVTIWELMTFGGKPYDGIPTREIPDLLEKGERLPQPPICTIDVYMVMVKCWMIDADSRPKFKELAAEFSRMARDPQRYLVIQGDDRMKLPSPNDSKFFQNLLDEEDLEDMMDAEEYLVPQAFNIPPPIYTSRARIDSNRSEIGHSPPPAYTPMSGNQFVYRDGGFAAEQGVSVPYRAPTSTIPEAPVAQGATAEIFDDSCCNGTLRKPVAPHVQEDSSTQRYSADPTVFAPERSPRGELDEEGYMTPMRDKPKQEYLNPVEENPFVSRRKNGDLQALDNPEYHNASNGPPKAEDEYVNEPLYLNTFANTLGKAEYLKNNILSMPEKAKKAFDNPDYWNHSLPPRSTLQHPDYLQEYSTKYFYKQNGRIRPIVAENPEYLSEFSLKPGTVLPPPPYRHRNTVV
Data set [14] concerns Serine/threonine-protein kinase B-raf (Homo sapiens), P15056 [V600E]. The data set can be described thus: Inhibition of BRAF V600E mutant (unknown origin) at 10 uM incubated for 40 mins in presence of Mg/ATP mix by [gamma p33]-ATP based scintillation counting method relative to control.
Chain of Serine/threonine-protein kinase B-raf (Homo sapiens), P15056 [V600E] (P15056 whole entry V600E): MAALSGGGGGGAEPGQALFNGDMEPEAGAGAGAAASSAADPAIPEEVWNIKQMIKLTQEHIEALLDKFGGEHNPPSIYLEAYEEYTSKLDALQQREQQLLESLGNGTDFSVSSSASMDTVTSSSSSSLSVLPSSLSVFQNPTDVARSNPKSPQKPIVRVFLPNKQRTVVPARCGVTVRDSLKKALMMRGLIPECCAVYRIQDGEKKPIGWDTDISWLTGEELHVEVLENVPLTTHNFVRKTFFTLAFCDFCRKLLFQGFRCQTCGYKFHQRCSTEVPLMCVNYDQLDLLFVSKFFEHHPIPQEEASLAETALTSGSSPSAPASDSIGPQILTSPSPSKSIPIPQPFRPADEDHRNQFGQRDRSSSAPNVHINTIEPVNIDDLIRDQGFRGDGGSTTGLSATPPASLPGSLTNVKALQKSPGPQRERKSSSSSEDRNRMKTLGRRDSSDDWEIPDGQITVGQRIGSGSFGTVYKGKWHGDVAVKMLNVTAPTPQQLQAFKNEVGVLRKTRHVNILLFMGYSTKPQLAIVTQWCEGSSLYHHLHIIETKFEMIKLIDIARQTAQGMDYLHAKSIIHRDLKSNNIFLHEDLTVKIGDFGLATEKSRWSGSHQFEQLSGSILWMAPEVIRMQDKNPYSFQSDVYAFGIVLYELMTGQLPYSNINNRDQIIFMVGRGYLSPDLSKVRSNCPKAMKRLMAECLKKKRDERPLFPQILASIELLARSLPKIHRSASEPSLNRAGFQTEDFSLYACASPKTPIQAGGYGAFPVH
Data set [15] has as its system SNB-75. The experiment in a line: Antiproliferative activity against human SNB-75 cells assessed as cell growth inhibition at 10 uM measured after 48 hrs by SRB assay relative to control. It counts as functional.
The test system of data set [16] is Panel NCI-60 (60 carcinoma cell lines). The experiment in a line: Growth inhibition of human panel NCI-60 (60 carcinoma cells) assessed as growth percent at 10 uM measured after 48 hrs by SRB assay relative to control. It counts as functional. As to conditions: read-out: Activity.
Data set [17] addresses T2, Serine/threonine-protein kinase B-raf (Homo sapiens, UniProt P15056). The experiment in a line: Inhibition of wild type B-RAF (unknown origin) at 10 uM incubated for 40 mins in presence of Mg/ATP mix by [gamma p33]-ATP based scintillation counting method relative to control.
For data set [18], the system named is SNB-75. The data set can be described thus: Antiproliferative activity against human SNB-75 cells assessed as cell growth inhibition measured after 48 hrs by SRB assay. It counts as functional, cell-based. As to conditions: SNB-75, 48 h.
Data set [19] concerns the target Epidermal growth factor receptor (Homo sapiens, UniProt P00533). The data set can be described thus: Inhibition of EGFR (unknown origin) at 10 uM incubated for 40 mins in presence of Mg/ATP mix by [gamma p33]-ATP based scintillation counting method relative to control.
For data set [20], the system named is HL-60(TB). The experiment in a line: Antiproliferative activity against human HL-60(TB) cells assessed as cell growth inhibition measured after 48 hrs by SRB assay. It counts as functional, cell-based. As to conditions: HL-60, 48 h.
In data set [21] the target is T3, Vascular endothelial growth factor receptor 2 (Homo sapiens, UniProt P35968). The experiment in a line: Inhibition of KDR (unknown origin) at 10 uM incubated for 40 mins in presence of Mg/ATP mix by [gamma p33]-ATP based scintillation counting method relative to control.
T3 sequence (P35968 whole entry): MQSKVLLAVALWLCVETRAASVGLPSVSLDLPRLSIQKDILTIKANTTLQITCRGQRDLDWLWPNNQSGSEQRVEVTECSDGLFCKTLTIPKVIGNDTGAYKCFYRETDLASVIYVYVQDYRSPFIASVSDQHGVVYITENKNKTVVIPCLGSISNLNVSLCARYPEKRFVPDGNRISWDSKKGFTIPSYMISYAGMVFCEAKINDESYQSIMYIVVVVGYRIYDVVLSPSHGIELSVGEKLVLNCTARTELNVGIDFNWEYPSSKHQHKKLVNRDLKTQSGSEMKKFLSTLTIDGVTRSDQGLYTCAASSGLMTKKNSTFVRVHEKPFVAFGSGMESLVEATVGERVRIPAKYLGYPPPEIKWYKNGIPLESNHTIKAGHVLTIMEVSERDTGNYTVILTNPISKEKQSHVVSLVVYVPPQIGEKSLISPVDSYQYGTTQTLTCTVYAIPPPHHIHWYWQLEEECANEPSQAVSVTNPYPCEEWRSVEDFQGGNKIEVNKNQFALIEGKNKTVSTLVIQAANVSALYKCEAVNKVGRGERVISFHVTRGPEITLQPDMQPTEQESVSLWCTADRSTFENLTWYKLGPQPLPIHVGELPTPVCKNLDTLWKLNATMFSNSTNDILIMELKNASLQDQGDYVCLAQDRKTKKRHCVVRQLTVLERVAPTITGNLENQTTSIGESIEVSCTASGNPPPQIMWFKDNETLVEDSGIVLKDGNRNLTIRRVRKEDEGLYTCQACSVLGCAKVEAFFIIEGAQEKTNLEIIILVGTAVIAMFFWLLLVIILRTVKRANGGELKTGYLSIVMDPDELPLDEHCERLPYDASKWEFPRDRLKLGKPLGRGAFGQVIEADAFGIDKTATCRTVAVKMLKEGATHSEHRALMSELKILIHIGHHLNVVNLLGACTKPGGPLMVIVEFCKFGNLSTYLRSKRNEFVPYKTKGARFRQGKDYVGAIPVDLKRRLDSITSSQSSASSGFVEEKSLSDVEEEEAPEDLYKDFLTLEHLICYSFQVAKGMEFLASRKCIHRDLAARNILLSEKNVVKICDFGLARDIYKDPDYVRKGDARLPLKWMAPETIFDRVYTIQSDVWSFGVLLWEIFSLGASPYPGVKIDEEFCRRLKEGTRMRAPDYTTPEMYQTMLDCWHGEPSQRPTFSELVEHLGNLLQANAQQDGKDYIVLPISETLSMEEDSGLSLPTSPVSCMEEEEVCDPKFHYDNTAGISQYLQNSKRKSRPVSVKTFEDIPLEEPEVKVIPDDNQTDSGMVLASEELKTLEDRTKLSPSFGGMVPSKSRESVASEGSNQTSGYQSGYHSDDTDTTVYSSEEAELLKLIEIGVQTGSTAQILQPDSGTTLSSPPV
Data set [22] has as its system SK-MEL-5. The data set can be described thus: Antiproliferative activity against human SK-MEL-5 cells assessed as cell growth inhibition measured after 48 hrs by SRB assay. It counts as functional, cell-based. The settings on record: SK-MEL-5, 48 h.
In data set [23] the target is T4, RAF proto-oncogene serine/threonine-protein kinase (Homo sapiens, UniProt P04049). The data set can be described thus: Inhibition of RAF1 (unknown origin) at 10 uM incubated for 40 mins in presence of Mg/ATP mix by [gamma p33]-ATP based scintillation counting method relative to control.
T4 sequence (P04049 whole entry): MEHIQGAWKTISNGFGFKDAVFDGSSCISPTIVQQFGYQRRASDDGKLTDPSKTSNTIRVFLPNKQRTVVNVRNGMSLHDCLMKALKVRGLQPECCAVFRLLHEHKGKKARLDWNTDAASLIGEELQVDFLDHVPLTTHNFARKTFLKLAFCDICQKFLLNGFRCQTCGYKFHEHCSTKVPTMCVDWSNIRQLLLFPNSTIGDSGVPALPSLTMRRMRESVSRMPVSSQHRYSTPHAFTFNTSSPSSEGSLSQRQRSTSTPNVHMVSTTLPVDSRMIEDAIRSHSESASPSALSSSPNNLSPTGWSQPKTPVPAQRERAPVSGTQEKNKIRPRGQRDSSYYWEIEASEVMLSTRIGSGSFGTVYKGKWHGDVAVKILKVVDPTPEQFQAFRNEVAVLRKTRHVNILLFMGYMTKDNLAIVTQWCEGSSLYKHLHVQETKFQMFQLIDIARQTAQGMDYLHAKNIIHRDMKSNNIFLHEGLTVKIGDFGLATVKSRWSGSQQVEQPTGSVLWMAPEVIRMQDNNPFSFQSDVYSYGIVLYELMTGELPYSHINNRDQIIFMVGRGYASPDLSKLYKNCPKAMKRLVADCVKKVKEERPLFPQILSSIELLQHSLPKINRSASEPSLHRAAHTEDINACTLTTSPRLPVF
Data set [24] deals with NCI-H322M. The experiment in a line: Antiproliferative activity against human NCI-H322M cells assessed as cell growth inhibition measured after 48 hrs by SRB assay. It counts as functional, cell-based.
A short description of data set [25]: Cytotoxicity against human WI-38 cells assessed as cell growth inhibition at 10 uM measured after 48 hrs by SRB assay relative to control. It counts as cell-based.
Data set [26] concerns SK-MEL-5. The data set can be described thus: Antiproliferative activity against human SK-MEL-5 cells assessed as cell growth inhibition at 10 uM measured after 48 hrs by SRB assay relative to control. It counts as functional.
Data set [27] concerns UO-31. The data set can be described thus: Antiproliferative activity against human UO-31 cells assessed as cell growth inhibition at 10 uM measured after 48 hrs by SRB assay relative to control. It counts as functional.
For data set [28], the target named is Dual specificity mitogen-activated protein kinase kinase 2 (Homo sapiens, UniProt P36507). The data set can be described thus: Inhibition of MEK2 (unknown origin) incubated for 40 mins in presence of Mg/ATP mix by [gamma p33]-ATP based scintillation counting method.
Data set [29] has as its target Serine/threonine-protein kinase B-raf (Homo sapiens, UniProt P15056, V600E). The data set can be described thus: Inhibition of BRAF V600E mutant (unknown origin) incubated for 40 mins in presence of Mg/ATP mix by [gamma p33]-ATP based scintillation counting method.
Data set [30] addresses Cytochrome P450 3A4 (Homo sapiens, UniProt P08684). The data set can be described thus: Inhibition of CYP3A4 (unknown origin) using BOMCC as a substrate incubated for 20 mins by fluorescence based analysis. It counts as ADME.
For data set [31], the target named is Voltage-gated inwardly rectifying potassium channel KCNH2 (Homo sapiens, UniProt Q12809). The data set can be described thus: Inhibition of human ERG incubated for 3 hrs by competitive fluorescence tracer binding based assay.
The target in data set [32] is hERG (KCNH2) (Homo sapiens, UniProt Q12809). The data set can be described thus: Safety index, ratio of test compound IC50 to E-4031 IC50 for inhibition of human ERG incubated for 3 hrs by competitive fluorescence tracer binding based assay. As to conditions: read-out: Ratio IC50.
The target in data set [33] is Cytochrome P450 2D6 (Homo sapiens, UniProt P10635). The experiment in a line: Inhibition of CYP2D6 (unknown origin) using EOMCC as a substrate incubated for 20 mins by fluorescence based analysis. It counts as ADME.
For data set [34], the target named is T4, RAF proto-oncogene serine/threonine-protein kinase. The experiment in a line: Inhibition of RAF1 (unknown origin) incubated for 40 mins in presence of Mg/ATP mix by [gamma p33]-ATP based scintillation counting method.
For data set [35], the target named is T3, Vascular endothelial growth factor receptor 2. The data set can be described thus: Inhibition of KDR (unknown origin) incubated for 40 mins in presence of Mg/ATP mix by [gamma p33]-ATP based scintillation counting method.
The target of data set [36] is Epidermal growth factor receptor (Homo sapiens, UniProt P00533, L861Q). The experiment in a line: Inhibition of EGFR- L861Q mutant (unknown origin) incubated for 40 mins in presence of Mg/ATP mix by [gamma p33]-ATP based scintillation counting method.
Data set [37] has as its target Epidermal growth factor receptor (Homo sapiens, UniProt P00533, L858R/T790M). The data set can be described thus: Inhibition of EGFR T790M/L858R mutant (unknown origin) incubated for 40 mins in presence of Mg/ATP mix by [gamma p33]-ATP based scintillation counting method.
In data set [38] the target is CYP3A4 (Homo sapiens, UniProt P08684). The data set can be described thus: Potency index, ratio of test compound IC50 to ketoconazole IC50 for inhibition of CYP3A4 (unknown origin) using BOMCC as a substrate incubated for 20 mins by fluorescence based analysis. It counts as ADME. The settings on record: probe BOMCC.
Data set [39] is filed under the species Homo sapiens. The experiment in a line: Selectivity ratio of IC50 for inhibition of EFGR-T790M mutant (unknown origin) to IC50 for ErbB4 (unknown origin). As to conditions: time 40.0 min.
Data set [40] concerns the target T1, Receptor tyrosine-protein kinase erbB-4. The experiment in a line: Inhibition of ErbB4 (unknown origin) incubated for 40 mins in presence of Mg/ATP mix by [gamma p33]-ATP based scintillation counting method.
Data set [41] deals with T2, Serine/threonine-protein kinase B-raf. The experiment in a line: Inhibition of wild type B-RAF (unknown origin) incubated for 40 mins in presence of Mg/ATP mix by [gamma p33]-ATP based scintillation counting method.
In data set [42] the target is Epidermal growth factor receptor (Homo sapiens, UniProt P00533, T790M). The data set can be described thus: Inhibition of EGFR- T790M mutant (unknown origin) incubated for 40 mins in presence of Mg/ATP mix by [gamma p33]-ATP based scintillation counting method.
For data set [43], the target named is Serine/threonine-protein kinase A-Raf (Homo sapiens, UniProt P10398). The experiment in a line: Inhibition of A-RAF (unknown origin) incubated for 40 mins in presence of Mg/ATP mix by [gamma p33]-ATP based scintillation counting method.
Data set [44] deals with Receptor-type tyrosine-protein kinase FLT3 (Homo sapiens, UniProt P36888). The data set can be described thus: Inhibition of FLT-3(unknown origin) incubated for 40 mins in presence of Mg/ATP mix by [gamma p33]-ATP based scintillation counting method.

T2 sequence (P15056 whole entry): as the sequence (P15056 whole entry V600E) above, with E600V counted along it
Chain of Serine/threonine-protein kinase B-raf (Homo sapiens, UniProt P15056, V600E) (P15056 2-766 V600E limits assumed): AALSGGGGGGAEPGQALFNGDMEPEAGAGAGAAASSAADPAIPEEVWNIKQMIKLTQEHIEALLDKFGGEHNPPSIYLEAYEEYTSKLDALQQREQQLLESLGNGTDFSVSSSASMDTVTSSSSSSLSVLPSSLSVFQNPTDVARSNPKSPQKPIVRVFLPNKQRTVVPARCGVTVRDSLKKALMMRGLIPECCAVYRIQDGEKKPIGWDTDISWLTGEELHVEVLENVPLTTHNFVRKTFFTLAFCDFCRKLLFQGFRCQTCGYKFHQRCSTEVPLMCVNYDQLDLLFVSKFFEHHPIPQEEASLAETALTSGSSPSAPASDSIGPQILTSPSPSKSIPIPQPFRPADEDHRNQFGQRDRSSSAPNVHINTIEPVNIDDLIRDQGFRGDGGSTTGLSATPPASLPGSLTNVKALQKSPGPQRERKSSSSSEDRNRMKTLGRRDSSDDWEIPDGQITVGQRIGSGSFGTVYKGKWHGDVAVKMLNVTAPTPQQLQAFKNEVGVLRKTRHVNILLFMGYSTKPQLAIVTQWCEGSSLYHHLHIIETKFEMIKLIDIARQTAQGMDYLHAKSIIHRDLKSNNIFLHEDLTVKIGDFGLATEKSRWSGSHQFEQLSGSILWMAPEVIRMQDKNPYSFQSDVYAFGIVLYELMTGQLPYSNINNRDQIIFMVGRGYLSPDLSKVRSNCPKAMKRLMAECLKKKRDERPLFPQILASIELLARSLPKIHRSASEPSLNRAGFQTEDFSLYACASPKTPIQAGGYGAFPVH

As for `CS(=O)(=O)c1nccc(-c2c(-c3cccc(OCc4ccc(F)cc4)c3)nc3sccn23)n1`, the inhibition at 10 µM in data set [1] was 164%; in data set [7], 34.9%; in [8], 56.3%; in data set [10] it was 154%; in data set [15], 4.08%; in data set [26], 94.6%. The inhibition at 10 µM in data set [27] amounted to 124%. The IC50 in data set [2] turned out to be 1.89 µM; in [3], 3.98 µM; in data set [5], 1.68 µM; in data set [11] it was 12.6 µM; in [12] it was 1.8 µM; in [18], 15.6 µM. Besides, the IC50 in [20] worked out at 3.36 µM; in data set [22] it was 1.54 µM; in data set [24], 1.82 µM. The inhibition in data set [4] was -0.04%; in [6] it was -2.99%; in [9], 2.46%; in data set [13], 60.2%; in data set [14], 33.6%; in data set [17] it was 9.62%. Besides, the results for the inhibition in [19], in data set [21] and in data set [23] were -5.54%, 24.8% and 10.8%, respectively. In data set [16], the growth at 10 µM was found to be 60.6%. In [25], the inhibition at 48 h, 10 µM stood at 21.6%.

`c1ccc(COc2cccc(-c3nc4sccn4c3-c3ccncn3)c2)cc1`: the IC50 in data set [28] was 3.25 µM; in [29], 1.59 µM; in data set [30] it was 20.9 µM; in data set [31] it was 12.8 µM; in data set [33], greater than 90 µM; in [34], 2.03 µM. The IC50 in data set [35] worked out at 0.71 µM; in data set [36], 4.35 µM; in data set [37], 8.56 µM; in data set [40], 0.0177 µM; in data set [41], 1 µM; in data set [42], 0.38 µM. The IC50 in [43] was determined as 7.06 µM; in data set [44], 1.36 µM. Also, the selectivity ratio at 3 h in data set [32] stood at 530. Further, the inhibition in data set [13] was greater than 60%. Also, the growth at 10 µM in data set [16] was 78.4%. The selectivity ratio at 20 min in [38] came to 8790. In addition, the Selectivity Index in data set [39] was 21.5.

For orientation: inhibition means the change of the read-out against control, counted positive when it falls. By IC50 is commonly meant the concentration that inhibits the measured activity by half.

(Values after ChEMBL document CHEMBL4831500, “Discovery of first-in-class imidazothiazole-based potent and selective ErbB4 (HER4) kinase inhibitors” (Eur J Med Chem, 2021).)
